Reference: paper PMC12405493, “Selective ubiquitination of drug-like small molecules by the ubiquitin ligase HUWE1” (Nature Communications, 2025)

Key:
HUWE1^HECT [1] = biological target: T1, HUWE1^HECT (Homo sapiens, UniProt Q7Z6Z7); assay: Single-turnover assay, Ub thioester transfer from E2 to HUWE1^HECT; assay type: biochemical; details: HECT^Δ4 variant
T1 construct: HUWE1^HECTΔ4 (residues 3993–4370); made in house
T1 sequence (Q7Z6Z7 3993-4370): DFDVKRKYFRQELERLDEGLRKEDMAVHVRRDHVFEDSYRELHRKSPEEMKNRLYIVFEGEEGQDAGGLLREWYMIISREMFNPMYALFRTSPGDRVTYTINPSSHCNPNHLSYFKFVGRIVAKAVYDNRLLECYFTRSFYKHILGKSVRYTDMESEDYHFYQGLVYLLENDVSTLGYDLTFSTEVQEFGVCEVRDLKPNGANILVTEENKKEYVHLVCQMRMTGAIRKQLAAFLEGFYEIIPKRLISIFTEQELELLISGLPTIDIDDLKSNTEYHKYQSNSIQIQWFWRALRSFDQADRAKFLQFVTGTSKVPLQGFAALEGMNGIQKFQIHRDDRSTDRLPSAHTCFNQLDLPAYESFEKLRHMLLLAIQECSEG
Procedure: E3-free multi-turnover ubiquitination reactions to monitor E1 and E2 activities contained 1 μM UBA1, 5 μM UBE2L3, 100 μM Ub, 2 mM ATP and 10 mM MgCl2 in 25 mM HEPES (pH 7.4), and 0.2 mM TCEP. Reactions were incubated at 30 °C for 10 min (or otherwise, as specified) and quenched with 50 mM EDTA, followed by the addition of SDS-loading dye. Single-turnover E2~Ub discharge assays were performed similarly to previous studies. In short, 1 μM UBA1, 5 μM UBE2L3, and 100 μM Ub were pre-incubated with 2 mM ATP and 10 mM MgCl2 in 25 mM HEPES (pH 7.4) at 30 °C for 30 min, diluted 4-fold, and quenched with 50 mM EDTA. Thereafter, 1.2 μM of the UBE2L3~Ub product was incubated with 5 μM HUWE1^HECT at 30 °C for 1 min.

[2] = biological target: T2, HUWE1-HECT-Ub vinylthioether-linked conjugate (Homo sapiens, UniProt Q7Z6Z7); assay: HDX-MS of HUWE1^HECT~Ub proxy with inhibitors; assay type: binding; details: 10-fold molar excess of inhibitor
T2 construct: The preparation of the vinylthioether-linked HUWE1^HECT-Ub complex was also previously described; made in house; host or cells: bacteria (components)
T2 sequence (Q7Z6Z7 4038-4374 limits assumed, other chains not shown): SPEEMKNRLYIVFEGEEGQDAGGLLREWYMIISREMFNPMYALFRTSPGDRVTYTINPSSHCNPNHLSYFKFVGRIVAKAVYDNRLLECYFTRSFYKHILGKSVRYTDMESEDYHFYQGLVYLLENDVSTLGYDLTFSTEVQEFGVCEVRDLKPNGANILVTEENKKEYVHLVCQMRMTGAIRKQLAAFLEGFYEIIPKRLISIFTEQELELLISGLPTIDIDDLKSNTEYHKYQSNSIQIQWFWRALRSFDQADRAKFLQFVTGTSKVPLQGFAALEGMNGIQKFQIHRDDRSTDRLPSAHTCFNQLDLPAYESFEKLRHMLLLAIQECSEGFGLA
Procedure: Two experiments were performed: 50 μM HUWE1^HECT (1) or HUWE1^HECT-Ub conjugate (2) were incubated with 500 μM of BI8626 or BI8622 for 1 h on ice prior HDX-MS. Individual HDX reactions were generated with a 2-arm autosampler (LEAP Technologies) by mixing 6.5 μL sample with 58.5 μL of HDX buffer (20 mM HEPES pH 8.0, 150 mM NaCl, 5 mM DTT) prepared with 99.9% D2O, incubation at 25 °C for various times, before quenching by mixing 55 μL with an equal volume of 400 mM KH2PO4/H3PO4 (pH 2.2) and 2 M guanidine-HCl (precooled at 1 °C). Non-deuterated samples were generated analogously by 10-fold dilution with H2O-based buffer. […] For each protein state and time-point, three individual HDX reactions were measured.
Peptide identification and HDX analysis was performed with ProteinLynx Global SERVER v.3.0.1 (PLGS; Waters) and DynamX v.3.0 (Waters), as described previously. […] Only peptides with an intensity >10,000 counts, ≤ 30 residues, ≥ 2 products with ≥ 0.05 products/residue, ≤ 25 ppm mass error and retention time tolerance of 0.5 min were analysed. […] The maximal deuterium uptake of a given peptide was calculated by the number of residues minus one for the N-terminal residue and minus the number of prolines. […]

HUWE1^HECT [3] = system: HUWE1^HECT; set-up: method as in PMID 25253726; details: in vitro; read-out: IC50 of HUWE1^HECT inhibition; cited from earlier work

SMILES	Ub transfer from the E2 to HUWE1^HECT (HUWE1^HECT [1])	Binding to HUWE1^HECT~Ub proxy by HDX-MS [2]	IC50 (HUWE1^HECT [3]) [nM]
Cc1c(C(=O)Nc2ccc(CN)cc2)ncnc1N1CCC(C#N)(c2ccccc2)CC1 [BI8622]	do not obstruct Ub transfer from the E2 to HUWE1^HECT	did not provide evidence of binding	3100
NCc1cccc(CNc2ncnc3c(N4CCN(Cc5ccccc5)CC4)ncnc23)c1 [BI8626]	do not obstruct Ub transfer from the E2 to HUWE1^HECT	did not provide evidence of binding	900
